Values of other authors as cited in US10308909B2, “Dried spore germinative compound mixtures” (Envera, LLC, priority 2013, dated 2019).

Experiments:
bacterial spores = conditions: concentrations as low as

| Molecule | concentration that inhibits germination (bacterial spores) | inhibition of Bacillus germination (Bacillus) |
| --- | --- | --- |
| cresol | 0.08 % (wt./vol) |  |
| C[C@@H](N)C(=O)O [D-alanine] |  | powerful inhibitor of Bacillus germination |
| Oc1ccccc1 [phenol] | 0.2 % (wt./vol) |  |
